pIC50: −log10 of the molar value.

The target of this test is T1, hNLRP3 (Homo sapiens, UniProt Q96P20).
T1 construct: THP-1 cells were purchased from the American Type Culture Collection; host or cells: THP-1 cells, PMA-differentiated, stimulated with gramicidin
T1 sequence (Q96P20 whole entry): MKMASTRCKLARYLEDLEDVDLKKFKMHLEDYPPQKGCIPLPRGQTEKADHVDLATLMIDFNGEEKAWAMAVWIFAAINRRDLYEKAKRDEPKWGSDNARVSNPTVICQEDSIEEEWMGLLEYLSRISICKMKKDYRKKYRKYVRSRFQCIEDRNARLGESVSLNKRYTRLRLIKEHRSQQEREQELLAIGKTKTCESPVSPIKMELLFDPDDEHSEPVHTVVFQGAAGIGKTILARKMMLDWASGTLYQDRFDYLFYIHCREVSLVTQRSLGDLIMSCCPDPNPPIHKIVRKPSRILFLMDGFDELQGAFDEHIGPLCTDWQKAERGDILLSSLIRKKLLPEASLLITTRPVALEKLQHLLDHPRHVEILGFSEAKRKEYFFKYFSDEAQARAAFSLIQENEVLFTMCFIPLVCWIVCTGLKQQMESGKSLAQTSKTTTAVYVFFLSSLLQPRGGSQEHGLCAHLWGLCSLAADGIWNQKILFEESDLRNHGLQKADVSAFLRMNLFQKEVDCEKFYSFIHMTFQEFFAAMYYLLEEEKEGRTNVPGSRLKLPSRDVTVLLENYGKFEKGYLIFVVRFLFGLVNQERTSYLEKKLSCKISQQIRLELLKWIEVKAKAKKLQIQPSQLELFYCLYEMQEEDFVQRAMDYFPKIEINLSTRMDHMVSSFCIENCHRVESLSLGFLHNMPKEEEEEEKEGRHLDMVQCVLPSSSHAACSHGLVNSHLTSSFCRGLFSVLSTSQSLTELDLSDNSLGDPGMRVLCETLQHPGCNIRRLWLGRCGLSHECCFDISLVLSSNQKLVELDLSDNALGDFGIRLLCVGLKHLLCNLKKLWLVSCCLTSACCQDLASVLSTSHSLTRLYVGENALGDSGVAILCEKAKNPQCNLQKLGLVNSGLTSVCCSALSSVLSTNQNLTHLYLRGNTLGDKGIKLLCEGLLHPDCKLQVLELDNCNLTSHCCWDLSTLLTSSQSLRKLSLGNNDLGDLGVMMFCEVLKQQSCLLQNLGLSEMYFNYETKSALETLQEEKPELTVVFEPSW
Put plainly: IL-1β production in PMA-differentiated THP-1 cells stimulated with gramicidin (hTHP-1 assay). Type of test: cell-based. As to conditions: read-out: NLRP3 Antagonist, hNLRP3 (THP-1, IL-1b) Normalized: GeoMean IC50. Here is the method:
Procedure 1: IL-1β Production in PMA-Differentiated THP-1 Cells Stimulated with Gramicidin.
THP-1 cells were purchased from the American Type Culture Collection and sub-cultured according to instructions from the supplier. […] Prior to the experiment, compounds were dissolved in dimethyl sulfoxide (DMSO) to generate a 30 mM stock. […] DMSO was backfilled in the plate to achieve a final DMSO assay concentration of 0.37%. The plate was then sealed and stored at room temperature until required.
THP-1 cells were treated with PMA (Phorbol 12-myristate 13-acetate) (20 ng/ml) for 16-18 hours. On the day of the experiment the media was removed and adherent cells were detached with trypsin for 5 minutes.
Procedure 2: IL-1β Production in PMA-Differentiated THP-1 Cells Stimulated with Gramicidin.
THP-1 cells were purchased from the American Type Culture Collection and sub-cultured according to instructions from the supplier. […] Prior to the experiment THP-1 were treated with PMA (Phorbol 12-myristate 13-acetate) (20 ng/ml) for 16-18 hours. Compounds were dissolved in dimethyl sulfoxide (DMSO) to generate a 30 mM stock. On the day of the experiment the media was removed and adherent cells were detached with trypsin for 5 minutes. […] Final DMSO concentration was at 0.37%. Cells were incubated with compounds for 1 hour and then stimulated with gramicidin (5 μM) (Enzo) for 2 hours. Plates were then centrifuged at 340 g for 5 min. Cell free supernatant (40 μL) was collected using a 96-channel PlateMaster (Gilson) and the production of IL-1β was evaluated by HTRF (cisbio).
1. Experimental procedure
1.2 Compound Preparation • Prepare the 3-fold serial dilution of the compounds with DMSO in a 384-well LDV Microplate using TECAN EVO system to generate the compound source plate with 10 concentrations. Top concentration is 30 mM. FIG. 5 depicts the layout of the microplate.
FIG. 5 depicts the layout of the plates: HC: 100 μM CRID3 (MCC950)+5 μM gramicidin LC: 5 μM Gramicidin.
1.5 IL-1β Detection • 1) Homogenize the 5× diluent #5 with a vortex and add 1 volume of stock solution in 4 volumes of distilled water. • 2) Thaw 20× stock solution of anti-IL1β-Cryptate-antibody and anti-IL1β XL-antibody. […] 2. Data Analysis: • 1.
As to `CN(C)Cc1ccc2c(c1)S(=O)(=NC(=O)Nc1c3c(cc4c1CCC4)CCC3)NC2` (single isomer, unassigned) [Compound 133a, (R or S)-1-(6-((dimethylamino)methyl)-1-oxido-2,3-dihydro-1l4-benzo[d]isothiazol-1-ylidene)-3-(1,2,3,5,6,7-hexahydro-s-indacen-4-yl)urea], the pIC50 is 4.52 to 5.30.
In the case of `CC(C)(O)c1cccc(C2CC(=O)NS2(=O)=NC(=O)Nc2c3c(cc4c2CCC4)CCC3)c1` (stereo not shown) [Compound 253, 1-(1,2,3,5,6,7-hexahydro-s-indacen-4-yl)-3-(5-(3-(2-hydroxypropan-2-yl)phenyl)-1-oxido-3-oxo-1l6-isothiazolidin-1-ylidene)urea] it was 6.00 to 6.70.
In the case of `Cc1c(C2CC2)nc2c(c1NC(=O)N=S1(=O)NC(=O)c3ccc(C(C)(C)O)cc31)CCC2` (stereo not shown) [Compound 105, 1-(2-cyclopropyl-3-methyl-6,7-dihydro-5H-cyclopenta[b]pyridin-4-yl)-3-(6-(2-hydroxypropan-2-yl)-1-oxido-3-oxo-2,3-dihydro-1l4-benzo[d]isothiazol-1-ylidene)urea] it was 6.00 to 6.70; in that of `CC(C)(O)c1ccc2c(c1)S(=O)(=NC(=O)Cc1c3c(cc4c1CCC4)CCC3)NC2=O` (single isomer, unassigned) [Compound 115a, (S or R)-2-(1,2,3,5,6,7-hexahydro-s-indacen-4-yl)-N-(6-(2-hydroxypropan-2-yl)-1-oxido-3-oxo-2,3-dihydro-1l4-benzo[d]isothiazol-1-ylidene)acetamide], 4.52 to 5.30.
The figure for `CC1(C)CS(=O)(=NC(=O)Nc2c3c(cc4c2CCC4)CCC3)NC1=O` (single isomer, unassigned) [Compound 102b, (R or S)-1-(4,4-dimethyl-1-oxido-3-oxo-1l6-isothiazolidin-1-ylidene)-3-(1,2,3,5,6,7-hexahydro-s-indacen-4-yl)urea] is 4.52 to 5.30; for `CC(C)(O)c1cc2c(s1)S(=O)(=NC(=O)Nc1c3c(cc4c1CCC4)CCC3)NC2=O` (stereo not shown) [Compound 229, 1-(1,2,3,5,6,7-hexahydro-s-indacen-4-yl)-3-(5-(2-hydroxypropan-2-yl)-1-oxido-3-oxo-2,3-dihydro-1l4-thieno[3,2-d]isothiazol-1-ylidene)urea] it is 4.52 to 5.30.
Consider `CC(C)(O)c1ccc2c(c1)C(=O)NS2(=O)=NC(=O)Nc1c2c(cc3c1CCC3)CCC2` (single isomer, unassigned) [Compound 121a, (R or S)-1-(1,2,3,5,6,7-hexahydro-s-indacen-4-yl)-3-(5-(2-hydroxypropan-2-yl)-1-oxido-3-oxo-2,3-dihydro-1l4-benzo[d]isothiazol-1-ylidene)urea], for which the pIC50 was 6.00 to 6.70.
Regarding `CC(C)(O)c1ccc2c(c1)S(=O)(=NC(=O)Nc1c3c(nc(C4CC4)c1C1CC1)CCC3)NC2=O` (single isomer, unassigned) [Compound 106a, 1(R or S)-1-(2,3-dicyclopropyl-6,7-dihydro-5H-cyclopenta[b]pyridin-4-yl)-3-(6-(2-hydroxypropan-2-yl)-1-oxido-3-oxo-2,3-dihydro-1l4-benzo[d]isothiazol-1-ylidene)urea], the pIC50 is 5.30 to 6.00.
The figure for `CC(C)(O)c1ccc2c(c1)S(=O)(=NC(=O)Nc1c3c(cc4c1CC4)CCC3)NC2=O` (stereo not shown) [Compound 112, 1-(6-(2-hydroxypropan-2-yl)-1-oxido-3-oxo-2,3-dihydro-1l4-benzo[d]isothiazol-1-ylidene)-3-(2,4,5,6-tetrahydro-1H-cyclobuta[f]inden-3-yl)urea] is 6.00 to 6.70.
The figure for `O=C1CC(Cc2ccccc2)S(=O)(=NC(=O)Nc2c3c(cc4c2CCC4)CCC3)N1` (stereo not shown) [Compound 101, 1-(5-benzyl-1-oxido-3-oxo-1l6-isothiazolidin-1-ylidene)-3-(1,2,3,5,6,7-hexahydro-s-indacen-4-yl)urea] is 5.30 to 6.00.
The figure for `COC(=O)c1ccc2c(c1)S(=O)(=NC(=O)Nc1c3c(cc4c1CCC4)CCC3)NC2=O` (single isomer, unassigned) [Compound 134a, methyl (R or S)-1-(((1,2,3,5,6,7-hexahydro-s-indacen-4-yl)carbamoyl)imino)-3-oxo-2,3-dihydro-1H-1l4-benzo[d]isothiazole-6-carboxylate 1-oxide] is less than 4.52; for `O=C(N=S1(=O)NC(=O)c2cccnc21)Nc1c2c(cc3c1CCC3)CCC2` (single isomer, unassigned) [Compound 223a, (S or S)-1-(1,2,3,5,6,7-hexahydro-s-indacen-4-yl)-3-(1-oxido-3-oxo-2,3-dihydro-1l4-isothiazolo[5,4-b]pyridin-1-ylidene)urea] it is 5.30 to 6.00; for `CC(C)(O)c1ccc2c(c1)S(=O)(=NC(=O)Nc1c3c(nc4c1CCC4(C)C)CCC3)NC2=O` (stereo not shown) [Compound 118, 1-(3,3-dimethyl-1,2,3,5,6,7-hexahydrodicyclopenta[b,e]pyridin-8-yl)-3-(6-(2-hydroxypropan-2-yl)-1-oxido-3-oxo-2,3-dihydro-1l4-benzo[d]isothiazol-1-ylidene)urea] it is 5.30 to 6.00.
In the case of `CC(C)(O)c1ccc2c(c1)S(=O)(=NC(=O)Nc1c3c(cc4c1CCC4)CCC3)NC2` (stereo not shown) [Compound 126, 1-(1,2,3,5,6,7-hexahydro-s-indacen-4-yl)-3-[6-(2-hydroxypropan-2-yl)-1-oxo-2,3-dihydro-1-^λ-6,2-benzothiazol-1-ylidene]urea], the pIC50 is less than 4.52.
`CN(C)Cc1ccc2c(c1)C(=O)NS2(=O)=NC(=O)Nc1c2c(cc3c1CCC3)CCC2` (stereo not shown) [Compound 125, 1-{5-[(dimethylamino)methyl]-1,3-dioxo-2,3-dihydro-1$l6,2-benzothiazol-1-ylidene}-3-(1,2,3,5,6,7-hexahydro-s-indacen-4-yl)urea]: the pIC50 was 4.52 to 5.30.
In the case of `CC(C)(O)c1ccc2c(c1)S(=O)(=NC(=O)Nc1c3c(nc4c1CCC4(C)C)CCC3)NC2=O` (single isomer, unassigned) [Compound 137, (S or R)-1-(3,3-dimethyl-1,2,3,5,6,7-hexahydrodicyclopenta[b,e]pyridin-8-yl)-3-(6-(2-hydroxypropan-2-yl)-1-oxido-3-oxo-2,3-dihydro-1l4-benzo[d]isothiazol-1-ylidene)urea] it was 6.00 to 6.70; in that of `C=C(C)c1ccc2c(c1)S(=O)(=NC(=O)Nc1c3c(cc4c1CCC4)CCC3)NC2=O` (stereo not shown) [Compound 207, 1-(1,2,3,5,6,7-hexahydro-s-indacen-4-yl)-3-(1-oxido-3-oxo-6-(prop-1-en-2-yl)-2,3-dihydro-1l4-benzo[d]isothiazol-1-ylidene)urea], 4.52 to 5.30; in that of `O=C(N=S1(=O)CC2(CN1)COC2)Nc1c2c(cc3c1CCC3)CCC2` (single isomer, unassigned) [Compound 139a, (S or R)-1-(1,2,3,5,6,7-hexahydro-s-indacen-4-yl)-3-(6-oxido-2-oxa-6l6-thia-7-azaspiro[3.4]octan-6-ylidene)urea], less than 4.52.
In the case of `CC(C)(O)c1ccc2c(c1)S(=O)(=NC(=O)Nc1c3c(nc4c1CCC4)CCC3)NC2=O` (single isomer, unassigned) [Compound 136, (S or R)-1-(1,2,3,5,6,7-hexahydrodicyclopenta[b,e]pyridin-8-yl)-3-(6-(2-hydroxypropan-2-yl)-1-oxido-3-oxo-2,3-dihydro-1l4-benzo[d]isothiazol-1-ylidene)urea] it was 6.00 to 6.70.

The pIC50 is −log10 of the IC50, conventionally taken in molar units.

(Values after patent US12134611B2, “Compounds and compositions for treating conditions associated with NLRP activity” (Novartis AG, priority 2018, dated 2024).)
